Experimental data: article PMC8224453, “A New PqsR Inverse Agonist Potentiates Tobramycin Efficacy to Eradicate Pseudomonas aeruginosa Biofilms” (Advanced Science, 2021)
“And” between values parts separate entries of the source, which are not always exact repeats. Equal entries are not always repeated. Where two headings read alike, the source gives them in different places.

Tests used:
planktonic PA14 wt = test: MIC assay, microbroth dilution; format: cell-based; settings: Pseudomonas aeruginosa
Description: composed of 15.5 g/L LB agar, 10 g/L peptone, 5 g/L NaCl and 5 g/L yeast extract, the resulting solution was sterilized before being plated.
The minimum inhibitory concentration […] of drug-free SqNPs, compound 4 prepared either in dimethyl sulfoxide (DMSO) or loaded in SqNPs, free Tob, Tob-loaded SqNPs, and Tob and compound 4 co-loaded SqNPs against planktonic PA14 wt were determined by standard microbroth dilution assays in 96-well plates. PA14 wt suspension was prepared from mid-log cultures in PPGAS medium and diluted to OD600 (absorption at 600 nm) 0.02 (2∙10^7 CFU/mL (CFU, colony-forming units)). PBS served as a control. Following 16 h incubation […]
nm) that were measured using a Tecan microplate reader Infinite M200Pro (Tecan, Crailsheim, Germany). The IC90 values are concentrations at which the growth of bacteria is inhibited by 90%. Three independent experiments were conducted in triplicate. Results are […]
Table S2. MIC assay against PA14 wt. Three independent experiments were conducted in triplicate.
Samples MIC (IC90 value) against PA14 wt
Drug-free SqNPs > 200 µg/mL
Compound (4) prepared in DMSO > 20 µM
Compound (4)-loaded SqNPs > 20 µM (a)
Tob loaded SqNPs 3.125 – 6.25 µg/mL (b)
Tob and compound (4) co-loaded SqNPs 3.125 – 6.25 µg/mL (b)
((4) concentration 20 µM)
(a) Compound (4) concentration
4.3. Minimum Biofilm Eradicating Concentration (MBEC) assay
Chemical and biological materials for in vitro assays. All chemicals were purchased from Sigma-Aldrich unless otherwise specified. Yeast extract was obtained from Fluka. Bacto™ Tryptone were obtained from BD Biosciences. Luria Bertani (LB) agar was obtained from Carl Roth. Gibco® PBS was obtained from Life Technologies. Purified water was prepared by a Milli-Q water purification system (Merk Millipore, Billerica, MA). The PA strain PA14

PqsR = biological target: T1, PqsR (Pseudomonas aeruginosa, UniProt Q9I4X0); test: PqsR β-galactosidase reporter-gene assay in E. coli DH5α; format: cell-based
T1 construct: which expresses PqsR and the β-galactosidase LacZ under the control of the pqsA promoter; expressed in transfected cells; host or cells: E. coli DH5α carrying plasmid pEAL08-2
T1 sequence (Q9I4X0 whole entry): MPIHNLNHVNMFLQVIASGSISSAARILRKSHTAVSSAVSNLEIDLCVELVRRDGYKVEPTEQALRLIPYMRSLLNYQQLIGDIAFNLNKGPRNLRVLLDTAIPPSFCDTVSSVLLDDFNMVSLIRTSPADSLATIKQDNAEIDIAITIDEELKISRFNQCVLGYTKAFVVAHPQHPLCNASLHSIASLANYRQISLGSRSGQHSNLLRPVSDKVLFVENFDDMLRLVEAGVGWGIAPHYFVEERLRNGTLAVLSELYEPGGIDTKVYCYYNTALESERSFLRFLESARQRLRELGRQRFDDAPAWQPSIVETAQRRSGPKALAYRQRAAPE
Description: 3. Primary Activity Assays
The inverse agonistic/antagonistic activity of potential PqsR ligands was evaluated in a β-galactosidase reporter gene assay in E. coli as previously described.[3] In short, test compounds were co-incubated with E. coli DH5α cells containing the plasmid pEAL08-2,[4] which expresses PqsR and the β-galactosidase LacZ under the control of the pqsA promoter.
The inverse agonistic/antagonistic activity of compounds was measured in the presence of 50 nM PQS. After incubation, galactosidase activity was quantified photometrically and expressed as ratio of controls. The given IC50 values represent the mean of at least two independent experiments using at least eight different concentrations of test compound with n = 4. Non-linear regression analysis was performed using OriginPro 2020. […]

[1] = Metabolic stability half-life (matrix not given); format: in vitro ADME; settings: matrix not stated; read-out: metabolic stability half-life t 1/2
Description: First, we evaluated the most promising compounds considering in vitro pharmacokinetic properties such as solubility and metabolic stability. […] Compounds 4 and 19 were moderately stable with half‐lives of 10 and 19 min, respectively.

CYP2D6 = biological target: T2, CYP2D6 (Homo sapiens, UniProt P10635); test: CYP inhibition (Cyprotex); format: in vitro ADME; settings: read-out: CYP inhibition 2D6
T2 construct: Cyprotex (contract assay)
T2 sequence (P10635 whole entry): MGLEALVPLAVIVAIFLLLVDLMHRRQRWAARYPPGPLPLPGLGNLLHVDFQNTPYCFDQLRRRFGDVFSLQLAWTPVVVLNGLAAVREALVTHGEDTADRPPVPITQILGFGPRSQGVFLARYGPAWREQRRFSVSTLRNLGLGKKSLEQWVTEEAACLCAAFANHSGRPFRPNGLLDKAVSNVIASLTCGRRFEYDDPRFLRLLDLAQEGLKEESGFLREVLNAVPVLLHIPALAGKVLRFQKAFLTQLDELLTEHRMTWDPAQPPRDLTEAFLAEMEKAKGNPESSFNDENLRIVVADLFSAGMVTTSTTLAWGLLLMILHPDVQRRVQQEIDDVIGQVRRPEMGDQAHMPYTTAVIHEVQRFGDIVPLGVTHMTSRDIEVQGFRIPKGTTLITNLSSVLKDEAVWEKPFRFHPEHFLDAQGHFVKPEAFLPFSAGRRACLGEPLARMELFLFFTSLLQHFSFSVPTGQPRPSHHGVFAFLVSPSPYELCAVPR
Description: (§1) 5.2. CYP and hERG inhibition
(§2) Assessment of in vitro drug safety regarding Cytochrom P450 (CYP) inhibition and inhibiton of human ether-à-go-go related gene (hERG) channel with a functional (patch-clamp-based) assay were performed at Cyprotex. Detailed information about the assays can be found in: https://www.cyprotex.com/admepk/in-vitro-metabolism/cytochrome-p450-inhibition, and […]

CYP2C9 = biological target: T3, CYP2C9 (Homo sapiens, UniProt P11712); test: CYP inhibition (Cyprotex); format: in vitro ADME; settings: read-out: CYP inhibition 2C9
T3 construct: Cyprotex (contract assay)
T3 sequence (P11712 whole entry): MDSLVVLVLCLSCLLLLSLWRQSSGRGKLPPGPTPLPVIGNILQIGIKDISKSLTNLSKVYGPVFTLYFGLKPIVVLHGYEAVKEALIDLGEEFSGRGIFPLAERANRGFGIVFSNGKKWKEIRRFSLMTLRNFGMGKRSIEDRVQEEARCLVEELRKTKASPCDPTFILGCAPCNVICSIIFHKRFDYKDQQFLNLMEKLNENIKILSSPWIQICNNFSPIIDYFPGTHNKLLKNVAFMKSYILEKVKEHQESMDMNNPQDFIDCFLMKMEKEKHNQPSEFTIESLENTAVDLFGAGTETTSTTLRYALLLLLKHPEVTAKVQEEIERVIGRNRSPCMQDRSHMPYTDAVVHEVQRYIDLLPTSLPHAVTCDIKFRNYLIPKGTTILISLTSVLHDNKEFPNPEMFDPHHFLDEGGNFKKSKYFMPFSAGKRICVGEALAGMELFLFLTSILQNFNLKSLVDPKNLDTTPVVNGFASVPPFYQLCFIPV
Description: as §1, §2

CYP2C19 = biological target: T4, CYP2C19 (Homo sapiens, UniProt P33261); test: CYP inhibition (Cyprotex); format: in vitro ADME; settings: read-out: CYP inhibition 2C19
T4 construct: Cyprotex (contract assay)
T4 sequence (P33261 whole entry): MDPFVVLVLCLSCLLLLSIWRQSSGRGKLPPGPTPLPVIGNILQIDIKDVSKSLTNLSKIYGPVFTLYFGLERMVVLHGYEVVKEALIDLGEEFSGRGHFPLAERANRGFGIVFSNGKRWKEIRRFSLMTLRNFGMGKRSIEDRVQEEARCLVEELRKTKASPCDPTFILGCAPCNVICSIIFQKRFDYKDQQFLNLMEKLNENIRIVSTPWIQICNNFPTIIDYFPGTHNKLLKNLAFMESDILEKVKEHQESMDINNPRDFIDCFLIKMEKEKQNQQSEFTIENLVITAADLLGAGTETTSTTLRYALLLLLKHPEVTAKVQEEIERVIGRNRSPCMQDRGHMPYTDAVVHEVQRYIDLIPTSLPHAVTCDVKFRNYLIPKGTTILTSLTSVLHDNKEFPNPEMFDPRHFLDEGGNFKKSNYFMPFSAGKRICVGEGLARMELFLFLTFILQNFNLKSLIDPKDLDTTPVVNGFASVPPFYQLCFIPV
Description: as §1, §2

Compound	MIC (planktonic PA14 wt; PA14, compound (4) concentration, 16 h, read-out: MIC (IC90 value) against PA14 wt) [µM]	IC50 (PqsR) [nM]	half-life [1] [min]	IC50 (CYP2D6) [µM]	IC50 (CYP2C9) [µM]	IC50 (CYP2C19)	fold higher activity than monosubstituted 11 (PqsR; PqsR reporter-gene IC50, versus 11) [fold]	MIC (planktonic PA14 wt; PA14, Tob concentration, 16 h, read-out: MIC (IC90 value) against PA14 wt) [µg/mL]	MIC (planktonic PA14 wt; PA14 wt, read-out: MIC in the planktonic setting) [µg/mL]
FC(F)(F)c1cc(NCc2cn(-c3ccc(Oc4ccccc4)cc3)nn2)ccn1 [Compound 4]	> 20	11	10	> 25	16.4	20.3 µM	–	–	–
COc1ccc(-n2cc(CNc3ccnc(C(F)(F)F)c3)nn2)cc1Cl [Compound 17]	–	8	3	> 25	> 25	3.6 µM and 3.55 µM	10	–	–
NC[C@H]1O[C@H](O[C@H]2[C@H](O)[C@@H](O[C@H]3O[C@H](CO)[C@@H](O)[C@H](N)[C@H]3O)[C@H](N)C[C@@H]2N)[C@H](N)C[C@@H]1O [Tobramycin, tobramycin]	–	–	–	–	–	–	–	3.12 to 6.25	3.12 to 6.25
